Reference: article PMC11444201, “A Novel Tetrahydroacridine Derivative with Potent Acetylcholinesterase Inhibitory Properties and Dissociative Capability against Aβ42 Fibrils Confirmed by In Vitro Studies” (International Journal of Molecular Sciences, 2024)
Where a name gives a salt, the structure may show the parent alone.

Legend:
[1] = biological target: T1, amyloid β 1-42 (Aβ42) fibrils (Homo sapiens, UniProt P05067); assay: thioflavin T fluorescence fibril dissociation assay (DC50), supported by AFM; format: biochemical
T1 construct: gene APP; amyloid β 1-42 peptide, preformed fibrils
T1 sequence (P05067 672-713): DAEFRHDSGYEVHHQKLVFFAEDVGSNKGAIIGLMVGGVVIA

[2] = biological target: acetylcholinesterase (AChE) (Electrophorus electricus, UniProt O42275); assay: modified Ellman spectrophotometric assay with isolated enzyme; format: biochemical
acetylcholinesterase (AChE), sequence (O42275 24-633): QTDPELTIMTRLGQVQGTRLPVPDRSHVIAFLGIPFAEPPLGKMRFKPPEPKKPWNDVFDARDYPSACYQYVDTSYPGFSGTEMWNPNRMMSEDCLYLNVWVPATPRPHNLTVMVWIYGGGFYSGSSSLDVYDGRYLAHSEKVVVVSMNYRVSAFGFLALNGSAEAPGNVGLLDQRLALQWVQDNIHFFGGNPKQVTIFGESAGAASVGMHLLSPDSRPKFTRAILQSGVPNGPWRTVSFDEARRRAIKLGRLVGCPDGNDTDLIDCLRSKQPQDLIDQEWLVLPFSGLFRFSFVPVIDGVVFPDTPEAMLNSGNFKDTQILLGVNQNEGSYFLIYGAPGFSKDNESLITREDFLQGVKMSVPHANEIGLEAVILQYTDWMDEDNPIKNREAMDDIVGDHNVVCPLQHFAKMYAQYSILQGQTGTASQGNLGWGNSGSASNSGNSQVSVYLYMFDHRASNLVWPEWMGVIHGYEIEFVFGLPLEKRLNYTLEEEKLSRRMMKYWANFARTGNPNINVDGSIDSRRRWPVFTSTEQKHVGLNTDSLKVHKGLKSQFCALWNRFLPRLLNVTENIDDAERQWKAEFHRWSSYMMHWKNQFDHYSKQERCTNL

## Clc1cc2c3c(c4c(nc3c1)CCCC4)NCCN2 [CHDA, 6-chloro-1,2,3,4,9,10,11,12-octahydro-[1,4]-diazepine-[5,6,7-kl]-acridine Monohydrochloride]
[1]
  DC50: 70800 nM
[2]
  IC50: 18.5 ± 5.68 nM
